# Patent USRE43748E1, “Nitrogen-containing heterocyclic carboxamide derivatives or salts thereof and antiviral agents comprising the same” (priority 1998, dated 2012)
# Legend:
# [1] = tested on: rhino virus typeII strain; assay: Anti-rhino activity, plaque inhibition in HeLa cells; type: cell-based; details: 72 h, plaque number, 30 μg/ml of compound, 3 days at 33° C., read-out: Inhibition percent (%)
# [2] = tested on: Vero cell (monkey kidney cell); assay: Cytotoxic activity, XTT method; type: cell-based; details: Primates, 96 h, Vero cells, cultured 4 days, read-out: 50% cell growth inhibitory concentration (IC50)
SMILES,inhibition at 30 µg/mL [1] [%],IC50 [2] [µg/mL]
"CC(=O)NC(=O)c1nccnc1O [No. 3, N^2-acetyl-3-hydroxy-2-pyrazinecarboxamide]",47.2,
"NC(=O)c1nccnc1O [No. 1, 3-hydroxy-2-pyrazinecarboxamide]",,≥ 250
